Measurements: patent US20260315567A1, “POLYMERIC LEUPROLIDE ACETATE FORMULATIONS” (Tolmar International Limited, priority 2023, published 2026)

How the values were obtained:
[1] = Solubility of LA in organic solvent; type: physicochemical; conditions: in NMP or DMSO
Text: To produce the drug/solvent bulk solution comprising the API (LA), the desired amount of the LA was combined with the solvent NMP or DMSO or combination of solvents with or without a co-solvent or other additives, in the indicated amounts (see individual experiments below). The API and solvent were combined in a glass vial or jar. Jars were mixed using the jar mill, Turbula, or shaker at room temperature until homogeneous. LA is soluble in NMP or DMSO and can load higher concentrations (at least 40% w/w). After dissolving the API in the organic solvent, the bulk solution was manually filled into syringes and capped with a tip cap. The syringes used for filling were either 1.2 mL male polypropylene syringes, 1.2 mL male cyclic olefin copolymer syringes or 1 mL male cyclic olefin copolymer syringes. Filled syringes were then packaged in labeled foil pouches with a Syringe A (polymer-solvent solution) and a desiccant pack and the pouches were sealed. After filling the syringes with the formulations, they were terminally sterilized with an external radiation dose of 30 kGy from e-beam processing. After terminal sterilization, the syringes were stored under refrigerated conditions (e.g., 2-8° C.) or accelerated conditions (>25° C. see individual experiments).

[2] = LA gelation studies of drug solutions (e-beam irradiated, 60 °C with agitation, inversion test); type: physicochemical; conditions: 150 rpm, up to 16 days, leuprolide acetate content
Description: Drug solutions were prepared as described above and filled into syringes or glass vials. Syringes were untreated, contained various amounts of silicone, or were plasma coated for lubrication. Samples were irradiated by e-beam irradiation at not less than 25 kGy and stored at accelerated conditions of 60° C. with agitation at 150 rpm for up to 16 days. Samples were inspected periodically to determine if the drug solution remained a solution or had formed a solid/gel by an inversion test. Samples that had “gelled” were transferred to 5° C. for subsequent testing.
The gelation rate for each sample was calculated as Rate=1/(simulated 5° C. age at time of gelation in days). The Arrhenius equation was used to determine the simulated age, assuming standard reaction rate doubling for every 10° C. increase in temperature. […] Data was analyzed using JMP. […] Container type and lubrication were not significant.
Samples were tested for leuprolide content by HPLC. Leuprolide content was then converted to leuprolide acetate by multiplying by 1.078 (based on molecular mass ratios). A marked difference in leuprolide acetate content between the gelled and non-gelled samples was seen, with the tipping point between solution and solid/gelled samples occurring at about 45% LA.

SMILES: CCNC(=O)[C@@H]1CCCN1C(=O)[C@H](CCCNC(=N)N)NC(=O)[C@H](CC(C)C)NC(=O)[C@@H](CC(C)C)NC(=O)[C@H](Cc1ccc(O)cc1)NC(=O)[C@H](CO)NC(=O)[C@H](Cc1c[nH]c2ccccc12)NC(=O)[C@H](Cc1c[nH]cn1)NC(=O)[C@@H]1CCC(=O)N1 [LA, leuprolide acetate]
- solubility (loading) [1]: at least 40 % w/w
- tipping point between solution and solid/gelled samples [2]: about 45 % LA
